The source of these data is US20110045032A1 (priority 2001, published 2011).

Series [1] relates to HT-29 SF cells. Put plainly: DHEA effect on cell cycle distribution (flow cytometry). It counts as cell-based, human. Conditions: 25-200 μM, 24-72 hours; time- and dose-dependent. As for the experimental part:
Cells were plated at 10^5/60-mm dish in duplicate. […] Cultures were trypsinized following […] and fixed and stained using a modification of a procedure of Bauer et al., Cancer Res., 46, 3173-3178 (1986). Briefly, cells were collected by centrifugation and resuspended in cold phosphate-buffered saline. Cells were fixed in 70% ethanol, washed, and resuspended in phosphate-buffered saline.
After 24, 48, and 72 hours, cells were harvested, fixed in ethanol, and stained with propidium iodide, and the DNA content/cell was determined by flow cytometric analysis. The percentage of cells in G1, S, and G2M phases was calculated using the Cellfit cell cycle analysis program. S phase is marked by a quadrangle for clarity. Representative histograms from duplicate determinations are shown. The experiment was repeated three times.
A general note: A flow cytometer gives signals particle by particle.

The test system of series [2] is HT-29 SF cells. Put plainly: DHEA effect on cell growth (Coulter counter).
Method: Cell cultures, HT-29 SF cells, which represent a subline of HY-29 cells (ATCC, Rockville, Md.) and are adapted for growth in completely defined serum-free PC-1 medium (Ventrex, Portland, Me.), were obtained. Stock cultures were maintained in this medium at 37° (in a humidified atmosphere containing 5% CO2).
For series [3], the system named is adult acute asthma exacerbation. Conditions: in conjunction with beta 2-agonists; adult and pediatric studies; cited from earlier work.
Series [4] relates to mast cell. Conditions: cell incubation for 5 min; cited from earlier work.
Series [5] relates to muscarinic receptors. To be noted: cited from earlier work.
Series [6] deals with T1, M(1)-muscarinic receptors (Homo sapiens, UniProt P11229).
T1 sequence (P11229 1-460): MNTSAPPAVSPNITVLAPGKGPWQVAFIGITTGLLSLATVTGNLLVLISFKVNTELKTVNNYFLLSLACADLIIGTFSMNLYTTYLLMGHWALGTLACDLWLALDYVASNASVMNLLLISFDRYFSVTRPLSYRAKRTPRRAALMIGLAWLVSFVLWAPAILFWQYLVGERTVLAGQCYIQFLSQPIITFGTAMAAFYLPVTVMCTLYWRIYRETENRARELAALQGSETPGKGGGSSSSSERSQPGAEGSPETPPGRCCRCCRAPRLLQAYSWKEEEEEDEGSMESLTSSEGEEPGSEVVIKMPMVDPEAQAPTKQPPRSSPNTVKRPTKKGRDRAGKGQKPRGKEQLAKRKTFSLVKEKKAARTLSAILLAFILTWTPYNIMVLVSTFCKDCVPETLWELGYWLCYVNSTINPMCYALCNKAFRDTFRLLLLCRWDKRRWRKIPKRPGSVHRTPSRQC
Conditions: cited from earlier work.

Series [7] deals with asthmatic and chronic obstructive pulmonary disease (COPD) patients. To be noted: cited from earlier work.
For series [8], the system named is HT-29 SF cells. Put plainly: Reversal of DHEA-mediated growth inhibition by supplements. It is filed as cell-based, human. To be noted: 25 μM DHEA, 48 hours of treatment.
Series [9] deals with HT-29 SF cells. Put plainly: Reversal of DHEA effect on cell cycle by supplements. It is filed as cell-based, human. Conditions: 25 μM DHEA.
Series [10] concerns dust mite-sensitized rabbits. As to the kind of experiment: Adenosine sensitivity PC40 (Example 25 animals). Conditions: 4 animals.
Series [11] concerns dust mite-sensitized rabbits. Put plainly: Adenosine sensitivity PC40 (Example 26 animals). To be noted: 5 animals.
Series [12] relates to patients with mild-to-moderate asthma. Conditions: cited from earlier work.
For series [13], the system named is mast cells. To be noted: cited from earlier work.
The test system of series [14] is Intracellular Adenosine in various Rat Tissues. It counts as in vivo. The procedure: Folinic acid (50 mg/kg) was administered intraperitoneally once daily for fourteen days. […] Hearts were removed from animals and flash frozen in liquid nitrogen with 10 seconds of death. Liver and lungs were removed en bloc and flash frozen with 30 seconds of death. Brain tissue was subsequently dissected.

In the case of `C[C@]12CC[C@H](O)CC1=CC[C@@H]1[C@@H]2CC[C@]2(C)C(=O)CC[C@@H]12` [DHEA, dehydroepiandrosterone], the “cell cycle effect (overall)” value in series [1] is on record as “G1 block”. The inhibition of growth result in series [2] (0-200 μM, 0-72 hours) is “time- and dose-dependent inhibition of growth”. Also, the “exposure time after which cell number reduced compared to controls” value in [2] (25 or 50 μM DHEA) turned out to be 48 h.

Take `CC(C)[N+]1(C)[C@@H]2CC[C@H]1C[C@@H](OC(=O)C(CO)c1ccccc1)C2` (stereo partly drawn) [IB, Ipratropium Bromide]: the “severe adverse effects attributable to ipratropium” value in series [3] is “Neither the adult nor the pediatric studies reported severe adverse effects”. Moreover, the “inhibition of histamine release” value in series [4] is recorded as “no distinction”.

As to `C[N+]1(C)[C@@H]2C[C@@H](OC(=O)C(O)(c3cccs3)c3cccs3)C[C@H]1[C@@H]1O[C@@H]12` [tiotropium bromide, Tiotropium bromide], the “affinity for muscarinic receptors” value in [5] was “high affinity”. In series [6], the dissociation from receptor entry is given as “dissociates very slowly”. In addition, in series [7] (Phase II, single inhaled doses), the “duration of bronchodilator and bronchoprotective effect” value is “over 24 h”. Also, in [7] (human, in vivo), the “patients with dryness of the mouth” value is reported as “approximately 10%”. Moreover, the “duration of stable bronchodilation” value in series [7] (phase III clinical trials, inhaled once daily) was “more than 24 hours”.

Take `CN1[C@@H]2CC[C@H]1C[C@@H](OC(=O)C(CO)c1ccccc1)C2` (stereo partly drawn) [atropine]: the “inhibition of histamine release” value in series [4] is reported as “no distinction”.

With `C[C@@](O)(CCO)CC(=O)O` [MVA, mevalonic acid], the “reversal of DHEA-induced growth inhibition by supplement” value in [8] was “partially overcome”. Further, the “prevention of DHEA-induced S phase depletion” value is on record as “partially prevented” in series [9] (48 hours) and “not” in series [9] (72 hours).

In the case of `CC(C)CCC[C@@H](C)[C@H]1CC[C@H]2[C@@H]3CC=C4C[C@@H](O)CC[C@]4(C)[C@H]3CC[C@]12C` [CH, cholesterol], the “reversal of DHEA-induced growth inhibition by supplement” value in series [8] was “no such effect”. For the same compound, in [9] (48 hours), the “prevention of DHEA-induced S phase depletion” value is “very little effect”.

With `CC(C)=CCC/C(C)=C/CC/C(C)=C/CC/C=C(\C)CC/C=C(\C)CCC=C(C)C` [SQ, squalene], in [8], the “reversal of DHEA-induced growth inhibition by supplement” value is recorded as “no such effect”.

As to `Nc1ncnc2c1ncn2[C@@H]1O[C@H](CO)[C@@H](O)[C@H]1O` [adenosine], the “PC40 for adenosine, mean” value in series [10] was determined as 2.5 mg/mL; in [11] it was 4.5 mg/mL.

Turning to `CC(c1cc2ccccc2s1)N(O)C(N)=O` (stereo not drawn) [Zyflo], in [12] (at the end of the study), the “beta-agonist puffs per day lower than baseline” value is on record as 31% and the “number of beta-agonist puffs needed per day” value is given as 1.77 puffs. For the same compound, in [12] (compared with 18.7% placebo), the “patients requiring steroid rescue” value is 7%. Moreover, the “reduction in patients requiring steroid rescue vs placebo” value in series [12] (human, in vivo) was 62%.

Regarding `CCC(CO)(C(=O)OC1C[C@H]2CC[C@@H](C1)[N+]2(C)C)c1ccccc1.[I-]` (stereo partly drawn) [troventol], in series [4], the “inhibition of histamine release” value was 47%. Further, in series [13], the “decrease in speed of passive calcium ion uptake” value was 56.3%.

Turning to `Nc1nc(=O)c2c([nH]1)NCC(CNc1ccc(C(=O)N[C@@H](CCC(=O)O)C(=O)O)cc1)N2C=O` (mixture of isomers) [Folinic Acid, Folinic acid], in series [14] (all organs studied), the “adenosine levels, folinic acid administered alone” value was “increase in adenosine levels”. For the same compound, the “effect of co-administration of folinic acid on steroid-mediated adenosine depletion” value in series [14] (co-administered with DHEA or methyltestosterone) was “completely abrogated”.
